Source: patent publication US12209087B2, “AKT1 modulators” (Alterome Therapeutics, Inc., priority 2022, dated 2025)

Each molecule was assayed against T1, full length AKT E17K (Homo sapiens, UniProt P31749, E17K) (assay: NanoBRET Target Engagement (TE) Assay). Conditions: competitive tracer displacement in living cells, read-out: AKT1 E17K IC50.
T1 construct: host or cells: HEK-293 (ATCC CRL-1573)
Format: cell-based
Excerpt: The NanoBRET™ Target Engagement (TE) Intracellular Kinase Assays are based on the NanoBRET™ System (Promega Corporation), an energy transfer technique designed to measure molecular proximity in living cells. The NanoBRET™ TE Assays measure the apparent affinity of test compounds by competitive displacement of the NanoBRET™ tracer compound, which is a cell permeable molecule engineered to be reversibly bound to a NanoLuc® luciferase-kinase fusion expressed in cells. For compound screening, when a test compound binds to the selected kinase, the BRET signal is attenuated. […] All cells were evaluated for viability prior to transfection and optimization of the transfection was done prior to experimentation. […] Following transfection, cells were washed and resuspended in Opti-MEM. NanoBRET assays were performed in white, 384-well plates (Corning) at a density of […]. All example compounds were prepared as concentrated stock solutions in DMSO (Sigma-Aldrich). Compounds are dissolved in DMSO to make 10 mM stock solution. […] A Labcyte ECHO 550 compound dispenser was used to facilitate compound transfer directly to cells. Cells were equilibrated for 2 hr with energy transfer probes and example compound prior to BRET measurements. […] For target engagement analysis, the energy transfer probes were added to the cells at concentrations optimized for the target in question (AKT E17K). Following compound incubation, NanoBRET NanoGlo Substrate (Promega Cat #N157D) and Extracellular Nanoluc Inhibitor (Promega Cat #N235C) was added according to the manufacturer's recommended protocol, and luminescence was measured on Envision Reader (Perkin Elmer) Multimode Luminometer equipped with 450 nm BPfilter (donor) and 600 nm LPfilter (acceptor), using 0.5 s integration time. Milli-BRET units (mBU) are calculated by multiplying the raw BRET values by 1000. Apparent tracer affinity values (EC50) were determined using the sigmoidal dose-response (variable slope).
Competitive displacement data were then plotted and data were fit to determine the EC50 value for each example compound.

T1 sequence (P31749 whole entry E17K): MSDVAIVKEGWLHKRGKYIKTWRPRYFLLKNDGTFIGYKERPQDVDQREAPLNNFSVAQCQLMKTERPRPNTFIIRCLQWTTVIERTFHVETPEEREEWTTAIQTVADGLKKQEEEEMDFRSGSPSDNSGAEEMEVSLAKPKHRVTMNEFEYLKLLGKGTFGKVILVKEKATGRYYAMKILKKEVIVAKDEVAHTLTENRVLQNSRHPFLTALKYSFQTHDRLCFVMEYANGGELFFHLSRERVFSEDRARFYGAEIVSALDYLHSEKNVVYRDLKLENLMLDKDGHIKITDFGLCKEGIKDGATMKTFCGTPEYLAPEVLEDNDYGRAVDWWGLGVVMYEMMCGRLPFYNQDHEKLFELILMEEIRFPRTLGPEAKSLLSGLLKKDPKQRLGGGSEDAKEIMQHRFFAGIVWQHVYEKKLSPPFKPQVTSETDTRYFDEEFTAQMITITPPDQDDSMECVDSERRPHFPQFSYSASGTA

Row | Compound | IC50
1 | N#Cc1cncc(C(=O)NC2CCN(Cc3ccc(-n4c(-c5cccnc5N)nc5ccc(-c6ccccc6)nc54)cc3)CC2)c1 [Example 57, N-(1-(4-(2-(2-Aminopyridin-3-yl)-5-phenyl-3H-imidazo[4,5-h]pyridin-3-yl)benzyl)piperidin-4-yl)-5-cyanonicotinamide] | 60 to 600 nM
2 | N#Cc1ncccc1C(=O)NC1CCN(Cc2ccc(-n3c(-c4cccnc4N)nc4ccc(-c5ccccc5)nc43)cc2)CC1 [Example 58, N-(1-(4-(2-(2-Aminopyridin-3-yl)-5-phenyl-3H-imidazo[4,5-h]pyridin-3-yl)benzyl)piperidin-4-yl)-2-cyanonicotinamide] | < 15 nM
3 | N#Cc1cccc(NC2CCN(Cc3ccc(-n4c(-c5cccnc5N)nc5cccnc54)cc3)CC2)n1 [Example 63, 6-((1-(4-(2-(2-Aminopyridin-3-yl)-3H-imidazo[4,5-b]pyridin-3-yl)benzyl)piperidin-4-yl)amino)picolinonitrile] | 600 to 10000 nM
4 | N#Cc1cncc(N2CCN(Cc3ccc(-n4c(-c5cccnc5N)nc5ccc(-c6ccccc6)nc54)cc3)CC2)c1 [Example 65, 5-(4-(4-(2-(2-Aminopyridin-3-yl)-5-phenyl-3H-imidazo[4,5-b]pyridin-3-yl)benzyl)piperazin-1-yl)nicotinonitrile] | 60 to 600 nM
5 | N#Cc1cncc(N2CCN(Cc3ccc(-n4c(-c5cccnc5N)nc5ccc(-c6ccccc6)nc54)cc3)CC2)n1 [Example 67, 6-(4-(4-(2-(2-Aminopyridin-3-yl)-5-phenyl-3H-imidazo[4,5-b]pyridin-3-yl)benzyl)piperazin-1-yl)pyrazine-2-carbonitrile] | 60 to 600 nM
6 | N#Cc1nnccc1C(=O)N1CCN(Cc2ccc(-n3c(-c4cccnc4N)nc4ccc(-c5ccccc5)nc43)cc2)CC1 [Example 70, 4-(4-(4-(2-(2-Aminopyridin-3-yl)-5-phenyl-3H-imidazo[4,5-b]pyridin-3-yl)benzyl)piperazine-1-carbonyl)pyridazine-3-carbonitrile] | 60 to 600 nM
7 | N#Cc1ccnc(NC2CCN(Cc3ccc(-n4c(-c5cccnc5N)nc5cccnc54)cc3)CC2)c1 [Example 75, 2-((1-(4-(2-(2-Aminopyridin-3-yl)-3H-imidazo[4,5-b]pyridin-3-yl)benzyl)piperidin-4-yl)amino)isonicotinonitrile] | 600 to 10000 nM
8 | N#Cc1cncc(NC2CCN(Cc3ccc(-n4c(-c5cccnc5N)nc5cccnc54)cc3)CC2)n1 [Example 76, 6-((1-(4-(2-(2-Aminopyridin-3-yl)-3H-imidazo[4,5-b]pyridin-3-yl)benzyl)piperidin-4-yl)amino)pyrazine-2-carbonitrile] | 600 to 10000 nM
9 | N#Cc1ccnc(NC2CCN(Cc3ccc(-n4c(-c5cccnc5N)nc5cccnc54)cc3)CC2)n1 [Example 77, 2-((1-(4-(2-(2-Aminopyridin-3-yl)-3H-imidazo[4,5-b]pyridin-3-yl)benzyl)piperidin-4-yl)amino)pyrimidine-4-carbonitrile] | 60 to 600 nM
10 | N#Cc1cc(N2CCN(Cc3ccc(-n4c(-c5cccnc5N)nc5ccc(-c6ccccc6)nc54)cc3)CC2)ncn1 [Example 78, 6-(4-(4-(2-(2-Aminopyridin-3-yl)-5-phenyl-3H-imidazo[4,5-b]pyridin-3-yl)benzyl)piperazin-1-yl)pyrimidine-4-carbonitrile] | < 15 nM
11 | N#Cc1cc(N2CCN(Cc3ccc(-n4c(-c5cccnc5N)nc5ccc(-c6ccccc6)nc54)cc3)CC2)ccn1 [Example 82, 4-(4-(4-(2-(2-Aminopyridin-3-yl)-5-phenyl-3H-imidazo[4,5-b]pyridin-3-yl)benzyl)piperazin-1-yl)picolinonitrile] | 15 to 60 nM

Next, values leading:

Row | IC50 | Compound
12 | < 15 nM | N#Cc1cccc(C(=O)NC2CCN(Cc3ccc(-n4c(-c5cccnc5N)nc5ccc(-c6ccccc6)nc54)cc3)CC2)n1 [Example 56, N-(1-(4-(2-(2-Aminopyridin-3-yl)-5-phenyl-3H-imidazo[4,5-b]pyridin-3-yl)benzyl)piperidin-4-yl)-6-cyanopicolinamide]
13 | 15 to 60 nM | N#Cc1cnccc1C(=O)NC1CCN(Cc2ccc(-n3c(-c4cccnc4N)nc4ccc(-c5ccccc5)nc43)cc2)CC1 [Example 59, N-(1-(4-(2-(2-Aminopyridin-3-yl)-5-phenyl-3H-imidazo[4,5-b]pyridin-3-yl)benzyl)piperidin-4-yl)-3-cyanoisonicotinamide]
14 | < 15 nM | N#Cc1ccncc1C(=O)NC1CCN(Cc2ccc(-n3c(-c4cccnc4N)nc4ccc(-c5ccccc5)nc43)cc2)CC1 [Example 60, N-(1-(4-(2-(2-Aminopyridin-3-yl)-5-phenyl-3H-imidazo[4,5-b]pyridin-3-yl)benzyl)piperidin-4-yl)-4-cyanonicotinamide]
15 | < 15 nM | N#Cc1cccnc1C(=O)NC1CCN(Cc2ccc(-n3c(-c4cccnc4N)nc4ccc(-c5ccccc5)nc43)cc2)CC1 [Example 61, N-(1-(4-(2-(2-Aminopyridin-3-yl)-5-phenyl-3H-imidazo[4,5-b]pyridin-3-yl)benzyl)piperidin-4-yl)-3-cyanopicolinamide]
16 | 600 to 10000 nM | N#Cc1cc(NC2CCN(Cc3ccc(-n4c(-c5cccnc5N)nc5cccnc54)cc3)CC2)ccn1 [Example 62, 4-((1-(4-(2-(2-Aminopyridin-3-yl)-3H-imidazo[4,5-b]pyridin-3-yl)benzyl)piperidin-4-yl)amino)picolinonitrile]
17 | 600 to 10000 nM | N#Cc1cc(NC2CCN(Cc3ccc(-n4c(-c5cccnc5N)nc5cccnc54)cc3)CC2)ncn1 [Example 64, 6-((1-(4-(2-(2-aminopyridin-3-yl)-3H-imidazo[4,5-b]pyridin-3-yl)benzyl)piperidin-4-yl)amino)pyrimidine-4-carbonitrile]
18 | 600 to 10000 nM | N#Cc1ccnc(N2CCN(Cc3ccc(-n4c(-c5cccnc5N)nc5ccc(-c6ccccc6)nc54)cc3)CC2)c1 [Example 66, 2-(4-(4-(2-(2-Aminopyridin-3-yl)-5-phenyl-3H-imidazo[4,5-b]pyridin-3-yl)benzyl)piperazin-1-yl)isonicotinonitrile]
19 | < 15 nM | N#Cc1ccnc(N2CCN(Cc3ccc(-n4c(-c5cccnc5N)nc5ccc(-c6ccccc6)nc54)cc3)CC2)n1 [Example 68, 2-(4-(4-(2-(2-Aminopyridin-3-yl)-5-phenyl-3H-imidazo[4,5-b]pyridin-3-yl)benzyl)piperazin-1-yl)pyrimidine-4-carbonitrile]
20 | 600 to 10000 nM | N#Cc1cccc(C(=O)N2CCN(Cc3ccc(-n4c(-c5cccnc5N)nc5cccnc54)cc3)CC2)n1 [Example 69, 6-(4-(4-(2-(2-Aminopyridin-3-yl)-3H-imidazo[4,5-b]pyridin-3-yl)benzyl)piperazine-1-carbonyl)picolinonitrile]
21 | 15 to 60 nM | N#Cc1nnccc1C(=O)NC1CCN(Cc2ccc(-n3c(-c4cccnc4N)nc4ccc(-c5ccccc5)nc43)cc2)CC1 [Example 71, N-(1-(4-(2-(2-Aminopyridin-3-yl)-5-phenyl-3H-imidazo[4,5-b]pyridin-3-yl)benzyl)piperidin-4-yl)-3-cyanopyridazine-4-carboxamide]
22 | 600 to 10000 nM | N#Cc1cncnc1C(=O)N1CCN(Cc2ccc(-n3c(-c4cccnc4N)nc4ccc(-c5ccccc5)nc43)cc2)CC1 [Example 72, 4-(4-(4-(2-(2-Aminopyridin-3-yl)-5-phenyl-3H-imidazo[4,5-b]pyridin-3-yl)benzyl)piperazine-1-carbonyl)pyrimidine-5-carbonitrile]
23 | 15 to 60 nM | N#Cc1cncnc1C(=O)NC1CCN(Cc2ccc(-n3c(-c4cccnc4N)nc4ccc(-c5ccccc5)nc43)cc2)CC1 [Example 73, N-(1-(4-(2-(2-Aminopyridin-3-yl)-5-phenyl-3H-imidazo[4,5-b]pyridin-3-yl)benzyl)piperidin-4-yl)-5-cyanopyrimidine-4-carboxamide]
24 | 600 to 10000 nM | N#Cc1cncc(NC2CCN(Cc3ccc(-n4c(-c5cccnc5N)nc5cccnc54)cc3)CC2)c1 [Example 74, 5-((1-(4-(2-(2-Aminopyridin-3-yl)-3H-imidazo[4,5-b]pyridin-3-yl)benzyl)piperidin-4-yl)amino)nicotinonitrile]
25 | 600 to 10000 nM | N#Cc1cncc(C(=O)N2CCN(Cc3ccc(-n4c(-c5cccnc5N)nc5cccnc54)cc3)CC2)c1 [Example 79, 5-(4-(4-(2-(2-Aminopyridin-3-yl)-3H-imidazo[4,5-b]pyridin-3-yl)benzyl)piperazine-1-carbonyl)nicotinonitrile]
26 | 600 to 10000 nM | N#Cc1ccc(C(=O)N2CCN(Cc3ccc(-n4c(-c5cccnc5N)nc5cccnc54)cc3)CC2)nc1 [Example 80, 6-(4-(4-(2-(2-Aminopyridin-3-yl)-3H-imidazo[4,5-b]pyridin-3-yl)benzyl)piperazine-1-carbonyl)nicotinonitrile]
27 | 60 to 600 nM | N#Cc1ccc(C(=O)NC2CCN(Cc3ccc(-n4c(-c5cccnc5N)nc5ccc(-c6ccccc6)nc54)cc3)CC2)nc1 [Example 81, N-(1-(4-(2-(2-Aminopyridin-3-yl)-5-phenyl-3H-imidazo[4,5-b]pyridin-3-yl)benzyl)piperidin-4-yl)-5-cyanopicolinamide]
